Test results published in ChEMBL document CHEMBL3885861, “Open TG-GATES”.

Species on record: Rattus norvegicus
Experiment: Open TG-GATES - Regimen: Daily Repeat
Assay type: toxicity, organism-based, Sprague-Dawley
Parameters: regimen Daily Repeat, gender Male, age 6 weeks
Conditions: in vivo, po, route gavage; for APTT / Bas / Eos / Fbg / Hb / Lym / MCH / MCHC / MCV / Mono / Plat / RBC / Ret / WBC / Ht: tissue Blood; for KIDNEY_L / KIDNEY_R / KIDNEY_TOTAL: tissue Kidney; for ALP / ALT / AST / BUN / CRE / Ca / Cl / DBIL / GLC / IP / K / LDH / Na / PL / RALB / TBIL / TC / TG / TP / gamma-GTP: tissue Plasma
[1] = 0 mg/kg, 72 h, dose level Control, time 3 day
[2] = 0 mg/kg, […], dose level Control, time 7 day
[3] = 0 mg/kg, […], dose level Control, time 14 day
[4] = 0 mg/kg, […], dose level Control, time 28 day
[5] = 25 mg/kg, 72 h, dose level Low, time 3 day
[6] = 25 mg/kg, […], dose level Low, time 7 day
[7] = 25 mg/kg, […], dose level Low, time 14 day
[8] = 25 mg/kg, […], dose level Low, time 28 day

Compound: O=C1CN(/N=C/c2ccc(-c3ccc([N+](=O)[O-])cc3)o2)C(O)=N1 [DANTROLENE]
- TERMINAL_BW [1]: 235.4 g
- APTT [1]: 16.8 s
- Bas [1]: 0%
- Eos [1]: 1%
- Fbg [1]: 224.8 mg/dL
- Hb [1]: 13.3 g/dL
- Lym [1]: 77%
- MCH [1]: 21.6 pg
- MCHC [1]: 33.6%
- MCV [1]: 64.2 fL
- Mono [1]: 6.6%
- Plat [1]: 128.8 x10_4/uL
- RBC [1]: 618.2 x10_4/ul
- Ret [1]: 6.6%
- WBC [1]: 113.2 x10_2/uL
- KIDNEY_L [1]: 1.1 g
- KIDNEY_R [1]: 1.1 g
- KIDNEY_TOTAL [1]: 2.2 g
- ALP [1]: 842.8 IU/L
- ALT [1]: 34 IU/L
- AST [1]: 62.8 IU/L
- BUN [1]: 19.2 mg/dL
- CRE [1]: 0.6 mg/dL
- Ca [1]: 10.9 mg/dL
- Cl [1]: 104 meq/L
- DBIL [1]: 0.004 mg/dL
- GLC [1]: 200.6 mg/dL
- IP [1]: 7.5 mg/dL
- K [1]: 4.7 meq/L
- LDH [1]: 85 IU/L
- Na [1]: 140.2 meq/L
- PL [1]: 158.6 mg/dL
- RALB [1]: 3.8 g/dL
- TBIL [1]: 0.3 mg/dL
- TC [1]: 78.4 mg/dL
- TG [1]: 114.8 mg/dL
- TP [1]: 5.8 g/dL
- gamma-GTP [1]: 1 IU/L
- TERMINAL_BW [2]: 269.1 g
- TERMINAL_BW [3]: 300.9 g
- TERMINAL_BW [4]: 379.1 g
- APTT [2]: 16.9 s
- Bas [2]: 0%
- Eos [2]: 1%
- Fbg [2]: 213 mg/dL
- Hb [2]: 14 g/dL
- Lym [2]: 78.2%
- MCH [2]: 21 pg
- MCHC [2]: 33.6%
- MCV [2]: 62.7 fL
- Mono [2]: 7.4%
- Plat [2]: 126.8 x10_4/uL
- RBC [2]: 666.4 x10_4/ul
- Ret [2]: 5.1%
- WBC [2]: 106.4 x10_2/uL
- APTT [3]: 17.6 s
- Bas [3]: 0%
- Eos [3]: 0.4%
- Fbg [3]: 201.8 mg/dL
- Hb [3]: 14.8 g/dL
- Lym [3]: 82.6%
- MCH [3]: 20.3 pg
- MCHC [3]: 33.3%
- MCV [3]: 61.1 fL
- Mono [3]: 3.8%
- Plat [3]: 112.9 x10_4/uL
- RBC [3]: 728.6 x10_4/ul
- Ret [3]: 3.7%
- WBC [3]: 110.6 x10_2/uL
- APTT [4]: 18.6 s
- Bas [4]: 0%
- Eos [4]: 1.4%
- Fbg [4]: 217.6 mg/dL
- Hb [4]: 15.6 g/dL
- Ht [4]: 46.2%
- Lym [4]: 84%
- MCH [4]: 19.5 pg
- MCHC [4]: 33.9%
- MCV [4]: 57.5 fL
- Mono [4]: 4.6%
- Plat [4]: 117 x10_4/uL
- RBC [4]: 803.2 x10_4/ul
- Ret [4]: 2.8%
- WBC [4]: 103.3 x10_2/uL
- KIDNEY_L [2]: 1.2 g
- KIDNEY_R [2]: 1.2 g
- KIDNEY_TOTAL [2]: 2.4 g
- KIDNEY_L [3]: 1.2 g
- KIDNEY_R [3]: 1.3 g
- KIDNEY_TOTAL [3]: 2.5 g
- KIDNEY_L [4]: 1.4 g
- KIDNEY_R [4]: 1.3 g
- KIDNEY_TOTAL [4]: 2.7 g
- ALP [2]: 931.4 IU/L
- ALT [2]: 33.4 IU/L
- AST [2]: 64.2 IU/L
- BUN [2]: 18.2 mg/dL
- CRE [2]: 0.5 mg/dL
- Ca [2]: 10.7 mg/dL
- Cl [2]: 106.8 meq/L
- DBIL [2]: 0.002 mg/dL
- GLC [2]: 204 mg/dL
- IP [2]: 7.2 mg/dL
- K [2]: 5.1 meq/L
- LDH [2]: 76.6 IU/L
- Na [2]: 138.6 meq/L
- PL [2]: 164.2 mg/dL
- RALB [2]: 3.8 g/dL
- TBIL [2]: 0.3 mg/dL
- TC [2]: 79.6 mg/dL
- TG [2]: 138.8 mg/dL
- TP [2]: 5.8 g/dL
- gamma-GTP [2]: 1.4 IU/L
- ALP [3]: 833.2 IU/L
- ALT [3]: 31.4 IU/L
- AST [3]: 61.6 IU/L
- BUN [3]: 17.8 mg/dL
- CRE [3]: 0.6 mg/dL
- Ca [3]: 10.5 mg/dL
- Cl [3]: 105.4 meq/L
- DBIL [3]: 0.012 mg/dL
- GLC [3]: 203.6 mg/dL
- IP [3]: 7.5 mg/dL
- K [3]: 4.5 meq/L
- LDH [3]: 82.6 IU/L
- Na [3]: 141.8 meq/L
- PL [3]: 139.2 mg/dL
- RALB [3]: 3.9 g/dL
- TBIL [3]: 0.3 mg/dL
- TC [3]: 62 mg/dL
- TG [3]: 85.8 mg/dL
- TP [3]: 5.9 g/dL
- gamma-GTP [3]: 0.8 IU/L
- ALP [4]: 628.6 IU/L
- ALT [4]: 30.6 IU/L
- AST [4]: 50.8 IU/L
- BUN [4]: 18 mg/dL
- CRE [4]: 0.6 mg/dL
- Ca [4]: 10.3 mg/dL
- Cl [4]: 106.8 meq/L
- DBIL [4]: 0.016 mg/dL
- GLC [4]: 187.8 mg/dL
- IP [4]: 6.5 mg/dL
- K [4]: 4.4 meq/L
- LDH [4]: 83.2 IU/L
- Na [4]: 140 meq/L
- PL [4]: 143.4 mg/dL
- RALB [4]: 3.8 g/dL
- TBIL [4]: 0.3 mg/dL
- TC [4]: 69.6 mg/dL
- TG [4]: 127.2 mg/dL
- TP [4]: 6.1 g/dL
- gamma-GTP [4]: 1.2 IU/L
- TERMINAL_BW [5]: 228.7 g
- APTT [5]: 19.4 s
- Bas [5]: 0%
- Eos [5]: 1%
- Fbg [5]: 221.4 mg/dL
- Hb [5]: 13.7 g/dL
- Lym [5]: 78%
- MCH [5]: 21.8 pg
- MCHC [5]: 33.8%
- MCV [5]: 64.6 fL
- Mono [5]: 8.4%
- Plat [5]: 138.1 x10_4/uL
- RBC [5]: 624.8 x10_4/ul
- Ret [5]: 5.3%
- WBC [5]: 107 x10_2/uL
- KIDNEY_L [5]: 1.1 g
- KIDNEY_R [5]: 1.1 g
- KIDNEY_TOTAL [5]: 2.2 g
- ALP [5]: 873.2 IU/L
- ALT [5]: 37.8 IU/L
- AST [5]: 75 IU/L
- BUN [5]: 19.6 mg/dL
- CRE [5]: 0.6 mg/dL
- Ca [5]: 10.8 mg/dL
- Cl [5]: 104.4 meq/L
- DBIL [5]: 0.004 mg/dL
- GLC [5]: 194.8 mg/dL
- IP [5]: 6.2 mg/dL
- K [5]: 4.5 meq/L
- LDH [5]: 102.4 IU/L
- Na [5]: 139.8 meq/L
- PL [5]: 151.8 mg/dL
- RALB [5]: 4 g/dL
- TBIL [5]: 0.3 mg/dL
- TC [5]: 73.8 mg/dL
- TG [5]: 122.4 mg/dL
- TP [5]: 5.8 g/dL
- gamma-GTP [5]: 0.6 IU/L
- TERMINAL_BW [6]: 252.5 g
- TERMINAL_BW [7]: 308.4 g
- TERMINAL_BW [8]: 376.7 g
- APTT [6]: 16.1 s
- Bas [6]: 0%
- Eos [6]: 1.2%
- Fbg [6]: 215 mg/dL
- Hb [6]: 14.4 g/dL
- Lym [6]: 79%
- MCH [6]: 20.9 pg
- MCHC [6]: 33.9%
- MCV [6]: 61.5 fL
- Mono [6]: 8%
- Plat [6]: 108.3 x10_4/uL
- RBC [6]: 689.4 x10_4/ul
- Ret [6]: 4.6%
- WBC [6]: 121.3 x10_2/uL
- APTT [7]: 17.2 s
- Bas [7]: 0%
- Eos [7]: 0.8%
- Fbg [7]: 222.2 mg/dL
- Hb [7]: 14.8 g/dL
- Lym [7]: 85.2%
- MCH [7]: 20.3 pg
- MCHC [7]: 33.8%
- MCV [7]: 60.1 fL
- Mono [7]: 4.8%
- Plat [7]: 122.4 x10_4/uL
- RBC [7]: 726.6 x10_4/ul
- Ret [7]: 3.9%
- WBC [7]: 111.4 x10_2/uL
- APTT [8]: 17.2 s
- Bas [8]: 0%
- Eos [8]: 1%
- Fbg [8]: 211 mg/dL
- Hb [8]: 15.6 g/dL
- Ht [8]: 45.9%
- Lym [8]: 82%
- MCH [8]: 20 pg
- MCHC [8]: 34%
- MCV [8]: 58.9 fL
- Mono [8]: 4.8%
- Plat [8]: 112.7 x10_4/uL
- RBC [8]: 779 x10_4/ul
- Ret [8]: 2.9%
- KIDNEY_L [6]: 1.1 g
- KIDNEY_R [6]: 1.2 g
- KIDNEY_TOTAL [6]: 2.3 g
- KIDNEY_L [7]: 1.2 g
- KIDNEY_R [7]: 1.3 g
- KIDNEY_TOTAL [7]: 2.5 g
- KIDNEY_L [8]: 1.4 g
- KIDNEY_R [8]: 1.5 g
- KIDNEY_TOTAL [8]: 2.9 g
- ALP [6]: 808 IU/L
- ALT [6]: 35 IU/L
- AST [6]: 68.8 IU/L
- BUN [6]: 17 mg/dL
- CRE [6]: 0.6 mg/dL
- Ca [6]: 10.8 mg/dL
- Cl [6]: 107.8 meq/L
- DBIL [6]: 0.014 mg/dL
- GLC [6]: 192.8 mg/dL
- IP [6]: 6.1 mg/dL
- K [6]: 5 meq/L
- LDH [6]: 121.4 IU/L
- Na [6]: 138.8 meq/L
- PL [6]: 151.4 mg/dL
- RALB [6]: 3.9 g/dL
- TBIL [6]: 0.4 mg/dL
- TC [6]: 77 mg/dL
- TG [6]: 92.6 mg/dL
- TP [6]: 5.7 g/dL
- gamma-GTP [6]: 1 IU/L
- ALP [7]: 770 IU/L
- ALT [7]: 33.2 IU/L
- AST [7]: 69.6 IU/L
- BUN [7]: 18.6 mg/dL
- CRE [7]: 0.6 mg/dL
- Ca [7]: 10.6 mg/dL
- Cl [7]: 104.2 meq/L
- DBIL [7]: 0.01 mg/dL
- GLC [7]: 198 mg/dL
- IP [7]: 6.1 mg/dL
- K [7]: 4.3 meq/L
- LDH [7]: 112.8 IU/L
- Na [7]: 141.6 meq/L
- PL [7]: 148.8 mg/dL
- RALB [7]: 3.9 g/dL
- TBIL [7]: 0.3 mg/dL
- TC [7]: 67.8 mg/dL
- TG [7]: 150.4 mg/dL
- TP [7]: 6 g/dL
- gamma-GTP [7]: 0.8 IU/L
- ALP [8]: 601.2 IU/L
- ALT [8]: 28.6 IU/L
- AST [8]: 55.8 IU/L
- BUN [8]: 18.2 mg/dL
- CRE [8]: 0.5 mg/dL
- Ca [8]: 10.6 mg/dL
- Cl [8]: 107.2 meq/L
- DBIL [8]: 0.018 mg/dL
- GLC [8]: 179 mg/dL
- IP [8]: 5 mg/dL
- K [8]: 4.3 meq/L
- LDH [8]: 106.6 IU/L
- Na [8]: 140.4 meq/L
- PL [8]: 154.8 mg/dL
- RALB [8]: 4 g/dL
- TBIL [8]: 0.3 mg/dL
- TC [8]: 76.4 mg/dL
- TG [8]: 145.8 mg/dL
- TP [8]: 6.2 g/dL
